Assays:
[1] = Average particle size and polydispersity index of lipid nanoparticles (dynamic light scattering); format: physicochemical
Description: The average particle size (number average value), ζ-average particle size, and polydispersity index (PdI) of the lipid nanoparticles in PBS(-) (pH 7.4), and the zeta potential in 10 mM HEPES buffer (pH 7.4) were measured using an analyzer "Zetasizer Nano ZS ZEN3600" (manufactured by Malvern) utilizing dynamic light scattering.

[2] = Encapsulation rate of lipid nanoparticles (Ribogreen); format: physicochemical
Outline: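 Ribogreen fluorescence (Ex/Em 500/525 nm) measured after mixing sample 1:1 with 10 mM HEPES pH 7.4 buffer with or without Triton X-100. mRNA quantified from a calibration curve of known mRNA dilutions; encapsulation rate (%) calculated from Triton(+) versus Triton(−) signals.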

[3] = test system: liver; assay: Fluc activity in the liver of mice administered Fluc mRNA-loaded lipid nanoparticles; format: in vivo, BALB/c mice
Description: Lipid nanoparticles were administered to mice by intravenous injection into the tail vein using a 27G needle. Unless otherwise specified, BALB/c mice (4 to 5 weeks old, female) were used.
First, BALB/c mice (female, 4 weeks old) were intravenously injected with lipid nanoparticles encapsulating Fluc mRNA (Fluc mRNA-loaded lipid nanoparticles) at a dose of 0.1 mg mRNA/kg. Six hours after intravenous injection, the mice were euthanized, each tissue was collected, frozen in liquid nitrogen, and stored at -80°C. The tissues were homogenized in passive lysis buffer (manufactured by Promega) using a bead-type cell disruptor (Micro Smash MS-100R, manufactured by TOMY Seiko). Tissue debris was removed by centrifugation, and the supernatant was collected. Fluc activity in the supernatant was measured using the Luciferase Assay System (E1500, manufactured by Promega) according to the manufacturer's protocol. Luminescence was measured using a luminometer (Luminescencer-PSN, manufactured by ATTO). Protein concentration was determined using a commercially available assay kit (BCA Protein Assay Kit, manufactured by Pierce). Fluc activity was expressed as relative light units (RLU) per mg of protein.
Subsequently, lipid nanoparticles encapsulating Fluc mRNA prepared using TxT-5-5A10, TxT-5-5A12, TxT-5-5A12β, TxT-5-5A14, and TxT-5-5A16 were administered to mice to evaluate luciferase expression levels (Fluc activity) in various tissues. Specifically, each Fluc mRNA-loaded lipid nanoparticle was administered to Balb/c mice at a dose of 0.1 mg mRNA/kg. Six hours after administration, the mice were euthanized, and their organs were collected to measure Fluc activity (RLU/mg protein) (N = 2 or 4).

[4] = test system: liver; assay: EGFP expression in liver tissue sections of mice administered EGFP mRNA-loaded lipid nanoparticles (confocal microscopy); format: in vivo, Balb/c mice; settings: Example 27, Fig. 6; EGFP mRNA-loaded lipid nanoparticles TxT/DSPC/chol/PEG-DMG=50/3/47/1.5 (mol%); 24 hours post-administration
Outline: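 Balb/c mice received EGFP mRNA-loaded lipid nanoparticles at 0.2 mg mRNA/kg, with DyLight-649 tomato lectin given i.v. at 40 µg/mouse at 23 h 50 min to mark vascular endothelium. Livers taken at 24 h were sectioned, Hoechst 33342-stained (1 µg/mL), and imaged by confocal laser scanning microscopy.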

[5] = Apparent pKa of lipid nanoparticles (TNS)
Description: The apparent pKa of the lipid nanoparticles was measured using p-toluenesulfonic acid (TNS). First, TNS (final concentration: 0.75 µM) and lipid nanoparticles (final concentration: 30 µM) were mixed in a buffer (200 mL) adjusted to each pH (pH 3.5 to 9.5). As the buffer, 20 mM citrate buffer, 20 mM sodium phosphate buffer, or 20 mM Tris-HCl buffer containing 130 mM NaCl was used. The fluorescence intensity of the prepared mixture was measured using a fluorescence spectrophotometer (Varioskan Lux, manufactured by Thermo Fisher Scientific) with the settings of λex=321 nm and λem=447 nm. Among the measured values, the highest value and the lowest value were set as 100% and 0% ionization degrees, respectively, and the pH showing a 50% ionization degree was calculated as the apparent pKa. The content ratio (%) of cationically charged pH-sensitive cationic lipid was calculated using the Henderson-Hasselbalch equation.

[6] = Table 1, Fluc mRNA-loaded lipid nanoparticles, TxT/DSPC/chol/PEG-DMG=50/15/35/1.5 (mol%)
[7] = Table 2, Fluc mRNA-loaded lipid nanoparticles, TxT-5-5A16/DSPC/chol/PEG-DMG=50/X/50-X/1.5 (mol%), DSPC concentration 3 mol %
[8] = Table 2, Fluc mRNA-loaded lipid nanoparticles, TxT-5-5A16/DSPC/chol/PEG-DMG=50/X/50-X/1.5 (mol%), DSPC concentration 6 mol %
[9] = Table 2, Fluc mRNA-loaded lipid nanoparticles, TxT-5-5A16/DSPC/chol/PEG-DMG=50/X/50-X/1.5 (mol%), DSPC concentration 9 mol %
[10] = Table 2, Fluc mRNA-loaded lipid nanoparticles, TxT-5-5A16/DSPC/chol/PEG-DMG=50/X/50-X/1.5 (mol%), DSPC concentration 12 mol %
[11] = Table 2, Fluc mRNA-loaded lipid nanoparticles, TxT-5-5A16/DSPC/chol/PEG-DMG=50/X/50-X/1.5 (mol%), DSPC concentration 15 mol %
[12] = Table 3, Fluc mRNA-loaded lipid nanoparticles, TxT/DSPC/chol/PEG-DMG=50/3/47/1.5 (mol%)
[13] = Table 5, EGFP mRNA-loaded lipid nanoparticles, TxT/DSPC/chol/PEG-DMG=50/3/47/1.5 (mol%), total flow rate 3.0 mL/min
[14] = Example 23, Fig. 2A, TxT-5-5A16/DSPC/chol/PEG-DMG=50/X/50-X/1.5 (mol%), 0.1 mg mRNA/kg, six hours

Pdl [1, 6]: 0.11
number average particle size [1, 6]: 61.0 nm
ζ-average particle size [1, 6]: 85.6 nm
Pdl [1, 7]: 0.0
number average particle size [1, 7]: 93.3 nm
ζ-average particle size [1, 7]: 114.0 nm
Pdl [1, 8]: 0.04
number average particle size [1, 8]: 78.6 nm
ζ-average particle size [1, 8]: 96.8 nm
Pdl [1, 9]: 0.08
number average particle size [1, 9]: 66.3 nm
ζ-average particle size [1, 9]: 90.2 nm
Pdl [1, 10]: 0.07
number average particle size [1, 10]: 64.4 nm
ζ-average particle size [1, 10]: 85.1 nm
Pdl [1, 11]: 0.14
number average particle size [1, 11]: 60.8 nm
ζ-average particle size [1, 11]: 88.3 nm
Pdl [1, 12]: 0.03
number average particle size [1, 12]: 93.3 nm
ζ-average particle size [1, 12]: 114.0 nm
Pdl [1, 13]: 0.04
number average particle size [1, 13]: 112.5 nm
ζ-average particle size [1, 13]: 132.4 nm
mRNA concentration [2, 6]: 0.020 µg/µL
mRNA encapsulation rate [2, 6]: 96.7%
mRNA concentration [2, 7]: 0.023 µg/µL
mRNA encapsulation rate [2, 7]: 98.8%
mRNA concentration [2, 8]: 0.024 µg/µL
mRNA encapsulation rate [2, 8]: 98.9%
mRNA concentration [2, 9]: 0.024 µg/µL
mRNA encapsulation rate [2, 9]: 98.3%
mRNA concentration [2, 10]: 0.024 µg/µL
mRNA encapsulation rate [2, 10]: 97.0%
mRNA concentration [2, 11]: 0.020 µg/µL
mRNA encapsulation rate [2, 11]: 95.6%
mRNA concentration [2, 12]: 0.023 µg/µL
mRNA encapsulation rate [2, 12]: 98.8%
mRNA concentration [2, 13]: 0.022 µg/µL
mRNA encapsulation rate [2, 13]: 99.2%
pKa ([5]; Table 1, apparent pKa of Fluc mRNA-loaded lipid nanoparticles, TxT/DSPC/chol/PEG-DMG=50/15/35/1.5 (mol%)): 6.27
pKa [5, 7]: 6.28
pKa [5, 8]: 5.88
pKa [5, 9]: 5.41
pKa [5, 10]: 6.24
pKa [5, 11]: 6.36
pKa [5, 12]: 6.28
Structure (SMILES): CCCCCCCCN(CCCCCCCC)C(=O)CCCC(=O)OCC(COC(=O)CCCC(=O)N(CCCCCCCC)CCCCCCCC)(COC(=O)CCCC(=O)N(CCCCCCCC)CCCCCCCC)NC(=O)CCN1CCCCC1 [TxT-5-5A16, 2-(((5-(dioctylamino)-5-oxopentanoyl)oxy)methyl)-2-(3-(piperidin-1-yl)propanamido)propane-1,3-diyl bis(5-(dioctylamino)-5-oxopentanoate)]
Fluc activity in the liver ([3]; Example 22, Fig. 1, TxT/DSPC/chol/PEG-DMG=50/15/35/1.5 (mol%), 0.1 mg mRNA/kg intravenous, six hours after administration, comparison among TxT lipids): highest Fluc activity in the liver
Effect of DSPC content on Fluc activity in the liver [3, 14]: Fluc activity increased as the DSPC content decreased
Fluc activity in the liver, 3 mol% DSPC compared to 15 mol% DSPC [3, 14]: approximately 10 times
fluorescence of EGFP in the liver tissues [4]: not detectable

Source: patent publication EP4722195A1, “PH-SENSITIVE CATIONIC LIPID AND LIPID NANOPARTICLES” (National University Corporation Hokkaido University, priority 2023, dated 2024)
